ChEMBL document CHEMBL4477262, “Non-canonical modulators of nuclear receptors” (Bioorg Med Chem Lett, 2016)
Peptide text beside a SMILES is read from it.

What was measured:
[1] = target: Androgen receptor/PELP1 (Homo sapiens, UniProt P10275+Q8IZL8); assay: Inhibition of full length AR/PELP1 (unknown origin) interaction expressed in human LNCaP cells preincubated for 2 hrs followed by DHT addition measured after 24 hrs by Western blot analysis; assay type: cell-based
[2] = target: T1, Estrogen receptor (Homo sapiens, UniProt P03372); assay: Inhibition of full length human ERalpha expressed in human HEC1 cells in presence of estradiol by luciferase reporter gene assay; assay type: cell-based
T1 sequence (P03372 whole entry): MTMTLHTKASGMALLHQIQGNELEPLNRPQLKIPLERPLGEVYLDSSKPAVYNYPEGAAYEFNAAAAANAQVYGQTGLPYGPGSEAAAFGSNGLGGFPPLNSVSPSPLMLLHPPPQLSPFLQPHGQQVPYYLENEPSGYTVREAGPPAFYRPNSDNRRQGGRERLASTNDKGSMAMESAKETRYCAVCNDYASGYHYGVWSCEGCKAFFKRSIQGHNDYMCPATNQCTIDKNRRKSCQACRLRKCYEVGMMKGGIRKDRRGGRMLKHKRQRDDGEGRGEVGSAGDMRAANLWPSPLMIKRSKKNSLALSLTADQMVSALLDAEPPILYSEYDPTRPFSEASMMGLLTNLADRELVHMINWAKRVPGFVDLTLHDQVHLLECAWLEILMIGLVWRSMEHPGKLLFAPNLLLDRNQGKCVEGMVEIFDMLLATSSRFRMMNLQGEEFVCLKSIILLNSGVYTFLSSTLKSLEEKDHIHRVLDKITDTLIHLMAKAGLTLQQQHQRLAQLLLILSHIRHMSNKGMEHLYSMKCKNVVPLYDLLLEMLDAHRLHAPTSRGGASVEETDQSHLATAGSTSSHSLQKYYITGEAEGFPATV

[3] = target: T2, Retinoic acid receptor RXR-alpha (Homo sapiens, UniProt P19793)
T2 sequence (P19793 whole entry): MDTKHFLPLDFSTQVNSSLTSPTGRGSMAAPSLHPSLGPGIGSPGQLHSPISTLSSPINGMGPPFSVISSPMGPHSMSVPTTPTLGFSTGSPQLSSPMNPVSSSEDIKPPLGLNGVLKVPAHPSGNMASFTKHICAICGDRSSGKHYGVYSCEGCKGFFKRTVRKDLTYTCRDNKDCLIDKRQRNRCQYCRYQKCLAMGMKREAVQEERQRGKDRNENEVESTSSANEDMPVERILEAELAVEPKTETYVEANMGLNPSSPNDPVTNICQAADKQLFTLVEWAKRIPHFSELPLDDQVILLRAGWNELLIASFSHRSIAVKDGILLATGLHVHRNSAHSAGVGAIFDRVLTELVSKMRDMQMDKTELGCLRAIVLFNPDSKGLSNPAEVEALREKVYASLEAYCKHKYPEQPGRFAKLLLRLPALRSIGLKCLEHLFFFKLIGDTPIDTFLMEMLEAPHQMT
Description: Binding affinity to human GST-tagged RXRalpha ligand binding domain (223 to 462 residues) expressed in Escherichia coli BL21 assessed as inhibition of 9-cis-RA-induced coactivator recruitment by TR-FRET assay

[4] = target: T1, Estrogen receptor; assay: Displacement of fluorescein-labeled PGC1alpha peptide from human GST-tagged ERalpha LBD after 2 hrs in presence of estradiol-beta by TR-FRET assay
[5] = target: T1, Estrogen receptor; assay: Displacement of europium-labeled SRC1 peptide from full length human recombinant ERalpha expressed in baculovirus expression system after 1.5 hrs in presence of estradiol-beta by TR-FRET assay
[6] = target: T3, Androgen receptor (Homo sapiens, UniProt P10275); assay: Inhibition of AR transcriptional activity in human ARR2PB-eGFP expressing LNCaP cells after 3 days by fluorescence assay; assay type: cell-based
T3 sequence (P10275 whole entry): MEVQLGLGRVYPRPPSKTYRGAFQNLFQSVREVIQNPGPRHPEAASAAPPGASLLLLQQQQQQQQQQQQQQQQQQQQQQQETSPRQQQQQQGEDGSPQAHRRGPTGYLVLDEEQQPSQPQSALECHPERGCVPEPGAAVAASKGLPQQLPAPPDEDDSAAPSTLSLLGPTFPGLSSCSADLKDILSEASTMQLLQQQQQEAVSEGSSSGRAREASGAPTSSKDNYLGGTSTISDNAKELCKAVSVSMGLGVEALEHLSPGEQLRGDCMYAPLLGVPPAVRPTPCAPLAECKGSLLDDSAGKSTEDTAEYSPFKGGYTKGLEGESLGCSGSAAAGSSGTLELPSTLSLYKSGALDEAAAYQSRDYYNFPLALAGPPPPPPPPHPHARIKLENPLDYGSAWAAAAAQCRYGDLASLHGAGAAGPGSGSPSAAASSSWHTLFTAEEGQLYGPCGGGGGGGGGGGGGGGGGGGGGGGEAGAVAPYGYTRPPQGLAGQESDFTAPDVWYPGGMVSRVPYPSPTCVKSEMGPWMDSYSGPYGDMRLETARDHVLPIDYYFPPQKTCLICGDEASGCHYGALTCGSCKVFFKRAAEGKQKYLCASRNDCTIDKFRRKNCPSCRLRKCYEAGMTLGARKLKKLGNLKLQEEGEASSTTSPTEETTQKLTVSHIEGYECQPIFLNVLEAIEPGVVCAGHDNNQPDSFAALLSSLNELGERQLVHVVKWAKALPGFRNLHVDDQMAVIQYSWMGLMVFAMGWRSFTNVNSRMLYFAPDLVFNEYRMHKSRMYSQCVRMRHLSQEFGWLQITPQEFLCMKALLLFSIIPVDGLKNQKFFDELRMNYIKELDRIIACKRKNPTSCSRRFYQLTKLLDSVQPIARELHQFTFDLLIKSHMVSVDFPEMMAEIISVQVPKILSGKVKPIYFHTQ

[7] = target: T4, Peroxisome proliferator-activated receptor alpha (Homo sapiens, UniProt Q07869); assay: Displacement of 5-FAM-labeled NBM131 from human PPARalpha ligand binding domain expressed in human HepG2 cells by fluorescence polarization assay
T4 sequence (Q07869 whole entry): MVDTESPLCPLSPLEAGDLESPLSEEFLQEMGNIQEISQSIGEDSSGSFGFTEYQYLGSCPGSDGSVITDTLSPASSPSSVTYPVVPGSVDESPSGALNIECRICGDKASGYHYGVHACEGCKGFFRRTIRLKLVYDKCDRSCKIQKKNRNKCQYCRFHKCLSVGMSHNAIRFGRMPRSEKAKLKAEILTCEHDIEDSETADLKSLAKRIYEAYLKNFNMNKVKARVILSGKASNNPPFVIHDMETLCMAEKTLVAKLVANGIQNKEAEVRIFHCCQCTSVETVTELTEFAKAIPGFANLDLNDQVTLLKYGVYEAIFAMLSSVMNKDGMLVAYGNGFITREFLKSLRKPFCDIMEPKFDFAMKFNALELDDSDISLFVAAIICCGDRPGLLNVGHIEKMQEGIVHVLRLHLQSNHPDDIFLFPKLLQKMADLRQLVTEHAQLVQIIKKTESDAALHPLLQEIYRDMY

[8] = target: T5, Peroxisome proliferator-activated receptor gamma (Homo sapiens, UniProt P37231); assay: Displacement of 5-FAM-labeled NBM131 from human PPARgamma ligand binding domain expressed in human HepG2 cells by fluorescence polarization assay
T5 sequence (P37231 whole entry): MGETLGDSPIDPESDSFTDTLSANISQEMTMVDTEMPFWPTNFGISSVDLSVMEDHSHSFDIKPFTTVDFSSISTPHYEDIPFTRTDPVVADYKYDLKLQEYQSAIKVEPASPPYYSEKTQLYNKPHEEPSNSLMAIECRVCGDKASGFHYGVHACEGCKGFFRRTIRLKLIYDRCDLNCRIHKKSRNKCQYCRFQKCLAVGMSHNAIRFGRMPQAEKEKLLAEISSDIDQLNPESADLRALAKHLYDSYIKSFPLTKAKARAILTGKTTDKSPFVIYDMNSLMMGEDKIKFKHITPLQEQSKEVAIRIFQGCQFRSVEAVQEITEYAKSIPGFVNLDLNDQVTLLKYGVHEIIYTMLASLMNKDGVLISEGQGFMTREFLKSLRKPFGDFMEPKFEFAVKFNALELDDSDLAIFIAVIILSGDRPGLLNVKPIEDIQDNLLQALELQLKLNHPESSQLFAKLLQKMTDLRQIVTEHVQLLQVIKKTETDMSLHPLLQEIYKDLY

Sequence of Androgen receptor/PELP1 (Q8IZL8 whole entry, one chain of several): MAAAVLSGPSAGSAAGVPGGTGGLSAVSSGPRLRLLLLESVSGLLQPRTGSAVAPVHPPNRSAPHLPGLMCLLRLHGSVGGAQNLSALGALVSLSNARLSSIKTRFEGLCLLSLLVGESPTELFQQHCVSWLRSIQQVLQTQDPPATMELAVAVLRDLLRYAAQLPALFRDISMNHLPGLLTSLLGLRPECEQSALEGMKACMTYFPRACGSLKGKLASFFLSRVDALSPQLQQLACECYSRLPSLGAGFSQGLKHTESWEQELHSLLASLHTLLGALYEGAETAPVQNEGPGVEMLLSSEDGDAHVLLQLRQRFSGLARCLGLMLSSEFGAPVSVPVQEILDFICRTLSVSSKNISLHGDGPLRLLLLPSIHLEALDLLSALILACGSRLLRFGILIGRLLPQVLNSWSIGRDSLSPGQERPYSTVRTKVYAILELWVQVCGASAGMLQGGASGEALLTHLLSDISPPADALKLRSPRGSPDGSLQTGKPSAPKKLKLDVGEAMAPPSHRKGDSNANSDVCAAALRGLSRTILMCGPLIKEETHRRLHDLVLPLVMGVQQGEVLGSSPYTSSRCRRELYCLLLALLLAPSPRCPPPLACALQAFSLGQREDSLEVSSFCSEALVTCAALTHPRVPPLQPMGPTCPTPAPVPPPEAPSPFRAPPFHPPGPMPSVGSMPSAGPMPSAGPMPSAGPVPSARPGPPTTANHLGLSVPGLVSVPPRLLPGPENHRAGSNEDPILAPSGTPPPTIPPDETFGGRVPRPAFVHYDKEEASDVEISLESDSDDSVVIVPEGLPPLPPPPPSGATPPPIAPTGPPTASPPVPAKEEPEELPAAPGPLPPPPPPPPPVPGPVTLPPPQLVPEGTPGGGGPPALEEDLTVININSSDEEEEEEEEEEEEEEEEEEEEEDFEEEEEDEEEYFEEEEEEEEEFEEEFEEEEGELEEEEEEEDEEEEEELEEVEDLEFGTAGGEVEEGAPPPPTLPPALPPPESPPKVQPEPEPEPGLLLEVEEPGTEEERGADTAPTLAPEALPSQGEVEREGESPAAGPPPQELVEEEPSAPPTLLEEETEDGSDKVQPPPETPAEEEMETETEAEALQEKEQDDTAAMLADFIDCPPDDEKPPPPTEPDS

COC(=O)c1ccc(NC(=O)c2ccc([N+](=O)[O-])c(OCC(C)C)c2)c(OCC(C)C)c1
IC50 [1]: 0.04 µM

O=C(CCCCn1c(=S)[nH]c2ccccc2c1=O)N1CCN(c2ccc(C(F)(F)F)cc2)CC1
IC50 [2]: 2.3 µM

CC1=C(CCc2nnn[nH]2)c2cc(F)ccc2/C1=C\c1ccc(C(C)C)cc1
IC50 [3]: 10 µM

O=C1NN(c2ccc(Cl)c(Cl)c2)C(=O)C1Cc1c[nH]c2ccccc12 (stereo not given)
IC50 [4]: 2.46 µM

CC[C@H](C)[C@@H]1NC(=O)[C@H](NC(=O)[C@@H](N)CCCCN)CSSC[C@@H](C(=O)N[C@@H](CCCNC(=N)N)C(=O)N[C@@H](CC(C)C)C(=O)N[C@@H](CC(C)C)C(=O)N[C@@H](CCC(N)=O)C(=O)O)NC(=O)[C@H](CC(C)C)NC1=O
Ki [5]: 0.025 µM

c1ccc2c(c1)CC(c1c[nH]c3ccccc13)N2 (stereo not given)
IC50 [6]: 0.31 µM

CCOc1cc(Br)cc(CNNC(=O)c2ccc3c(c2)OCCO3)c1O
IC50 [4]: 2.98 µM

CC(C)NC(=O)CSc1nc2ccc(NC(=O)CSc3cccc(Cl)c3)cc2s1
IC50 [2]: 6.3 µM

CC(C)C[C@H](NC(=O)[C@H](Cc1ccccc1)NC(=O)[C@H](CCC(N)=O)NC(=O)[C@@H](NC(=O)[C@H](CC(C)C)NC(=O)[C@H](CC(C)C)NC(=O)[C@@H]1CCCN1C(=O)[C@H](Cc1cnc[nH]1)NC(=O)[C@H](CC(C)C)NC(=O)[C@H](CCC(N)=O)NC(=O)[C@@H](NC(=O)[C@@H]1CCCN1C(=O)[C@@H]1CCCN1C(=O)[C@@H](NC(=O)[C@@H](NC(=O)[C@H](C)N)[C@@H](C)O)[C@@H](C)O)[C@@H](C)O)[C@@H](C)O)C(=O)N[C@@H](CCCNC(=N)N)C(=O)N[C@H](C(=O)N[C@@H](CC(=O)O)C(=O)O)[C@@H](C)O (H-ATTPPTQLHPLLTQFLRTD-OH)
Kd [7]: 0.08 µM
Kd [8]: 0.08 µM
